Results: PubChem BioAssay (NCI)
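Assay format: 96-well plates, 48-hour exposure. At the TGI there is no net growth.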

Columns and labels:
Experiment in all cases: growth of human tumour cells (NCI), 48 h
786-0 renal = tested on: 786-0 renal
A498 renal = tested on: A498 renal
A549 NSCLC = tested on: A549 NSCLC
ACHN renal = tested on: ACHN renal
BT-549 breast = tested on: BT-549 breast
CAKI-1 renal = tested on: CAKI-1 renal
CCRF-CEM leukemia = tested on: CCRF-CEM leukemia
COLO 205 colon = tested on: COLO 205 colon
DU-145 prostate = tested on: DU-145 prostate
EKVX NSCLC = tested on: EKVX NSCLC
HCC-2998 colon = tested on: HCC-2998 colon
HCT-116 colon = tested on: HCT-116 colon
HCT-15 colon = tested on: HCT-15 colon
HL-60(TB) leukemia = tested on: HL-60(TB) leukemia
HOP-62 NSCLC = tested on: HOP-62 NSCLC
HOP-92 NSCLC = tested on: HOP-92 NSCLC
HS 578T breast = tested on: HS 578T breast
HT29 colon = tested on: HT29 colon
IGROV1 ovarian = tested on: IGROV1 ovarian
K-562 leukemia = tested on: K-562 leukemia
KM12 colon = tested on: KM12 colon
LOX IMVI melanoma = tested on: LOX IMVI melanoma
M14 melanoma = tested on: M14 melanoma
MALME-3M melanoma = tested on: MALME-3M melanoma
MCF7 breast = tested on: MCF7 breast
MDA-MB-231 breast = tested on: MDA-MB-231 breast
MDA-MB-435 = tested on: MDA-MB-435
MDA-N = tested on: MDA-N
MOLT-4 leukemia = tested on: MOLT-4 leukemia
NCI-H226 lung = tested on: NCI-H226 lung
NCI-H23 lung = tested on: NCI-H23 lung
NCI-H460 lung = tested on: NCI-H460 lung
NCI-H522 lung = tested on: NCI-H522 lung
NCI/ADR-RES ovarian = tested on: NCI/ADR-RES ovarian
OVCAR-3 ovarian = tested on: OVCAR-3 ovarian
OVCAR-4 ovarian = tested on: OVCAR-4 ovarian
OVCAR-5 ovarian = tested on: OVCAR-5 ovarian
OVCAR-8 ovarian = tested on: OVCAR-8 ovarian
PC-3 prostate = tested on: PC-3 prostate
RPMI-8226 leukemia = tested on: RPMI-8226 leukemia
RXF 393 renal = tested on: RXF 393 renal
SF-268 CNS = tested on: SF-268 CNS
SF-295 CNS = tested on: SF-295 CNS
SF-539 CNS = tested on: SF-539 CNS
SK-MEL-2 melanoma = tested on: SK-MEL-2 melanoma
SK-MEL-28 melanoma = tested on: SK-MEL-28 melanoma
SK-MEL-5 melanoma = tested on: SK-MEL-5 melanoma
SK-OV-3 ovarian = tested on: SK-OV-3 ovarian
SN12C renal = tested on: SN12C renal
SNB-19 CNS = tested on: SNB-19 CNS
SNB-75 CNS = tested on: SNB-75 CNS
SR leukemia = tested on: SR leukemia
SW-620 colon = tested on: SW-620 colon
T-47D breast = tested on: T-47D breast
TK-10 renal = tested on: TK-10 renal
U251 CNS = tested on: U251 CNS
UACC-257 melanoma = tested on: UACC-257 melanoma
UACC-62 melanoma = tested on: UACC-62 melanoma
UO-31 renal = tested on: UO-31 renal

COc1ccc(-c2c(C#N)c(=O)nc(SC)n2C2OCC(OC(C)=O)C(OC(C)=O)C2OC(C)=O)cc1 (stereo not drawn) showed a TGI (786-0 renal) of over 100 µM, a TGI (A498 renal) of over 100 µM and a TGI (A549 NSCLC) of over 100 µM. For the same molecule, the TGI (ACHN renal) was over 100 µM, the TGI (BT-549 breast) was over 100 µM and the TGI (CAKI-1 renal) was over 100 µM. It also gave a TGI (CCRF-CEM leukemia) of over 100 µM, a TGI (COLO 205 colon) of over 100 µM and a TGI (DU-145 prostate) of over 100 µM. For the same molecule, the TGI (EKVX NSCLC) was over 100 µM, the TGI (HCC-2998 colon) was over 100 µM and the TGI (HCT-116 colon) was over 100 µM. It also gave a TGI (HCT-15 colon) of over 100 µM, a TGI (HL-60(TB) leukemia) of over 100 µM and a TGI (HOP-62 NSCLC) of over 100 µM. The TGI (HOP-92 NSCLC) was over 100 µM, the TGI (HS 578T breast) was over 100 µM and the TGI (HT29 colon) was over 100 µM. It also gave a TGI (IGROV1 ovarian) of over 100 µM, a TGI (K-562 leukemia) of over 100 µM and a TGI (KM12 colon) of over 100 µM. The TGI (LOX IMVI melanoma) was over 100 µM, the TGI (M14 melanoma) was over 100 µM and the TGI (MALME-3M melanoma) was over 100 µM. The TGI (MCF7 breast) was over 100 µM, the TGI (MDA-MB-231 breast) was over 100 µM and the TGI (MDA-MB-435) was over 100 µM. The TGI (MDA-N) was over 100 µM, the TGI (MOLT-4 leukemia) was over 100 µM and the TGI (NCI-H226 lung) was over 100 µM. It also gave a TGI (NCI-H23 lung) of over 100 µM, a TGI (NCI-H460 lung) of over 100 µM and a TGI (NCI-H522 lung) of over 100 µM. The TGI (NCI/ADR-RES ovarian) was over 100 µM, the TGI (OVCAR-3 ovarian) was over 100 µM and the TGI (OVCAR-4 ovarian) was over 100 µM. It also gave a TGI (OVCAR-5 ovarian) of over 100 µM, a TGI (OVCAR-8 ovarian) of over 100 µM and a TGI (PC-3 prostate) of over 100 µM. It also gave a TGI (RPMI-8226 leukemia) of over 100 µM, a TGI (RXF 393 renal) of over 100 µM and a TGI (SF-268 CNS) of over 100 µM. The TGI (SF-295 CNS) was over 100 µM, the TGI (SF-539 CNS) was over 100 µM and the TGI (SK-MEL-2 melanoma) was over 100 µM. It also gave a TGI (SK-MEL-28 melanoma) of over 100 µM, a TGI (SK-MEL-5 melanoma) of over 100 µM and a TGI (SK-OV-3 ovarian) of over 100 µM. The TGI (SN12C renal) was over 100 µM, the TGI (SNB-19 CNS) was over 100 µM and the TGI (SNB-75 CNS) was over 100 µM. The TGI (SR leukemia) was 53.3 µM, the TGI (SW-620 colon) was over 100 µM and the TGI (T-47D breast) was over 100 µM. It also gave a TGI (TK-10 renal) of over 100 µM, a TGI (U251 CNS) of over 100 µM and a TGI (UACC-257 melanoma) of over 100 µM. The TGI (UACC-62 melanoma) was over 100 µM and the TGI (UO-31 renal) was over 100 µM.
In the case of COc1ccc(C(CC(C)=O)c2c(O)c3ccccc3oc2=O)cc1OC (stereo not drawn), the TGI (786-0 renal) is reported as over 100 µM, the TGI (A498 renal) is reported as over 100 µM and the TGI (A549 NSCLC) is reported as over 100 µM. It also gave a TGI (ACHN renal) of over 100 µM, a TGI (BT-549 breast) of over 100 µM and a TGI (CAKI-1 renal) of over 100 µM. For the same molecule, the TGI (CCRF-CEM leukemia) was over 100 µM, the TGI (COLO 205 colon) was over 100 µM and the TGI (DU-145 prostate) was over 100 µM. It also gave a TGI (EKVX NSCLC) of over 100 µM, a TGI (HCC-2998 colon) of over 100 µM and a TGI (HCT-116 colon) of over 100 µM. The TGI (HCT-15 colon) was over 100 µM, the TGI (HL-60(TB) leukemia) was over 100 µM and the TGI (HOP-62 NSCLC) was over 100 µM. The TGI (HOP-92 NSCLC) was over 100 µM, the TGI (HS 578T breast) was over 100 µM and the TGI (HT29 colon) was over 100 µM. It also gave a TGI (IGROV1 ovarian) of over 100 µM, a TGI (K-562 leukemia) of over 100 µM and a TGI (KM12 colon) of over 100 µM. For the same molecule, the TGI (LOX IMVI melanoma) was over 100 µM, the TGI (M14 melanoma) was over 100 µM and the TGI (MALME-3M melanoma) was over 100 µM. For the same molecule, the TGI (MCF7 breast) was over 100 µM, the TGI (MDA-MB-231 breast) was over 100 µM and the TGI (MDA-MB-435) was over 100 µM. The TGI (MDA-N) was over 100 µM, the TGI (MOLT-4 leukemia) was over 100 µM and the TGI (NCI-H226 lung) was over 100 µM. The TGI (NCI-H23 lung) was over 100 µM, the TGI (NCI-H460 lung) was over 100 µM and the TGI (NCI-H522 lung) was over 100 µM. It also gave a TGI (NCI/ADR-RES ovarian) of over 100 µM, a TGI (OVCAR-3 ovarian) of over 100 µM and a TGI (OVCAR-4 ovarian) of over 100 µM. For the same molecule, the TGI (OVCAR-5 ovarian) was over 100 µM, the TGI (OVCAR-8 ovarian) was over 100 µM and the TGI (PC-3 prostate) was over 100 µM. For the same molecule, the TGI (RPMI-8226 leukemia) was over 100 µM, the TGI (RXF 393 renal) was over 100 µM and the TGI (SF-268 CNS) was over 100 µM. The TGI (SF-295 CNS) was over 100 µM, the TGI (SF-539 CNS) was over 100 µM and the TGI (SK-MEL-2 melanoma) was over 100 µM. The TGI (SK-MEL-28 melanoma) was over 100 µM, the TGI (SK-MEL-5 melanoma) was over 100 µM and the TGI (SK-OV-3 ovarian) was over 100 µM. It also gave a TGI (SN12C renal) of over 100 µM, a TGI (SNB-19 CNS) of over 100 µM and a TGI (SNB-75 CNS) of over 100 µM. The TGI (SR leukemia) was over 100 µM, the TGI (SW-620 colon) was over 100 µM and the TGI (T-47D breast) was over 100 µM. It also gave a TGI (TK-10 renal) of over 100 µM, a TGI (U251 CNS) of over 100 µM and a TGI (UACC-257 melanoma) of over 100 µM. It also gave a TGI (UACC-62 melanoma) of over 100 µM and a TGI (UO-31 renal) of over 100 µM.
